Entries after “also recorded” stand apart in the source; their conditions may differ. Where two headings read alike, the source gives them in different places.
Legend:
KGF expression = conditions: cultured fibroblasts; via Cys118 of p21ras, ras signalling pathway; cited from earlier work
hair growth [1] = conditions: nude mice, normal mice; in nude mice systemic, oral or topical; cited from earlier work
[2] = test system: hair shedding / hair growth of the scalp in patients; assay: Small-scale human clinical study of 0.01% AS101 topical spray, TrichoScan hair density analysis; assay type: in vivo
Text: Two small-scale human clinical studies were each conducted over a 6 month period to evaluate the potential use of an 0.01% AS101 spray formulation for the prevention of hair shedding and/or enhancing hair growth. Patients received no other alopecia treatment for at least 3 months prior to commencement of the study.
The sample group consisted of 36 patients, of which 6 withdrew due to non-compliance. Data from a further 14 patients was considered to be unsuitable for analysis with the TrichoScan system, for example, due to untraceable tattoos. 16 patients were therefore available for evaluation.
During an initial visit, a designated area of the scalp (about 0.7 cm^2) was shaved. Three days later, the area was tattooed using red ink, and photographed (Nikon digital camera). Patients were provided with a topical spray composition comprising 0.01% AS101 in 20% propylene glycol, 20% water and 60% ethyl alcohol, and were instructed to apply about 2 ml of the composition on the designated area on a daily basis for the first week, and once a day, twice a week thereafter. Patients were examined upon enrollment, and then after about 2 months, after about 3 months, and after about 6 months. Hair density, terminal hair density, and vellus hair density were analyzed, using the DatInf^R Image DB image archiving system, and TichoScan software.
Results were calculated in terms of hair density, terminal hair density, and vellus hair density.
FIGS. 2a and 2b present the data obtained for the hair density, terminal hair density and vellus hair density, each per cm^2, with two representative individuals of the study. The above parameters were measured at commencement of the study, after about 1 month, after about 3 months, and after about 6 months. All results were obtained using the DatInf^R Image DB image archiving system, and TichoScan software.

hair growth [3] = conditions: humans; cited from earlier work
anagen / catagen = conditions: C57BL/6 mouse model; cited from earlier work
IL-1, IL-6, TNF-α, IL-10 = conditions: cited from earlier work
interferon (IFN) [4] = conditions: humans; cited from earlier work
interferon (IFN) [5] = conditions: mice; cited from earlier work
[6] = test system: bone marrow toxicity and alopecia induced by chemotherapy; conditions: cancer patients; cited from earlier work

Q: For `Cl[TeH]1(Cl)(Cl)OCCO1` [AS101, ammonium trichloro(dioxyethylene-O,O′)tellurate], which KGF expression (KGF expression) is on record?
A: Its KGF expression is “upregulates KGF expression”.

Q: And the “induction of hair growth” value (hair growth [1])?
A: The value was “induce hair growth”.

Q: What about the side-effects ([2]; 0.01% AS101 topical spray, 6 months) of the same compound?
A: The side-effects was “No side-effects were observed”.

Q: And the “patients responding partially (increase observed during part of the treatment period)” value ([2]; 0.01% AS101 topical spray, 6 months, 16 evaluable patients)?
A: Its value is 18.75%.

Q: And the “patients who completed the study responding with a consistent increase in hair density” value ([2]; 0.01% AS101 topical spray, about 2 ml, daily first week then twice a week, 6 months, 16 evaluable patients)?
A: Its value is 37.5%.

Q: What about the “hair density, terminal hair density and vellus hair density per cm^2” value ([2]; after about 1 month, representative person and person (FIGS. 2a, 2b)) of the same compound?
A: The value was “significant increase”.

Q: And the “induction of hair growth” value (hair growth [3])?
A: The value was “induce hair growth”.

Q: And the “anagen induction and retardation of spontaneous catagen” value (anagen / catagen)?
A: Its value is “induce anagen and retard spontaneous catagen”.

Q: What about the IL-10 inhibition (IL-1, IL-6, TNF-α, IL-10; m-RNA level) of the same compound?
A: The IL-10 inhibition was “inhibit IL-10 at the m-RNA level”.

Q: And the “secretion of cytokines such as IL-1, IL-6 and TNF-α” value (IL-1, IL-6, TNF-α, IL-10; macrophages are one main target)?
A: Its value is “induce the secretion”.

Q: What about the “interferon (IFN) induction” value (interferon (IFN) [4]) of the same compound?
A: The value was “potent activator; also recorded: potent inducer”.

Q: What about the “interferon (IFN) induction” value (interferon (IFN) [5]) of the same compound?
A: The value was “potent activator; also recorded: potent inducer”.

Q: And the “protection from bone marrow toxicity and alopecia induced by chemotherapy” value [6]?
A: The value was “ability to protect”.
